Laboratory results from PubChem BioAssay AID2060886 (Molecular Pharmacology Branch, DTP, NCI, 2025).
One block for each molecule: values may come before it.

Tested on: 653999-131-R-J2-PDC complex spheroids, growth inhibition
Assay: Anticancer human tumor 653999-131-R-J2-PDC patient-derived lung adenocarcinoma cell line growth inhibition [RAS]
Settings: for viability, T/C: stronger effect = lower value
Outline: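 Multi-cell-type spheroids: tumor cells plus HUVEC endothelial cells and mesenchymal stem cells. RAS-pathway inhibitors were combined with targeted agents, each dosed in half-log steps down from clinical Cmax, or from 10 microM when Cmax was unknown.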

[1] = curve of first compound, second compound 0.000949 µM
[2] = curve of first compound, second compound 0.003 µM
[3] = curve of first compound, second compound 0.00949 µM
[4] = curve of first compound, second compound 0.03 µM
[5] = curve of first compound, second compound 0.0949 µM
[6] = curve of first compound, second compound 0.3 µM
[7] = second compound 0.000949 µM, first compound 0.0316 µM
[8] = second compound 0.000949 µM, first compound 0.1 µM
[9] = second compound 0.000949 µM, first compound 0.316 µM
[10] = second compound 0.000949 µM, first compound 1 µM
[11] = second compound 0.000949 µM, first compound 3.16 µM
[12] = second compound 0.000949 µM, first compound 10 µM
[13] = second compound 0.003 µM, first compound 0.0316 µM
[14] = second compound 0.003 µM, first compound 0.1 µM
[15] = second compound 0.003 µM, first compound 0.316 µM
[16] = second compound 0.003 µM, first compound 1 µM
[17] = second compound 0.003 µM, first compound 3.16 µM
[18] = second compound 0.003 µM, first compound 10 µM
[19] = second compound 0.00949 µM, first compound 0.0316 µM
[20] = second compound 0.00949 µM, first compound 0.1 µM
[21] = second compound 0.00949 µM, first compound 0.316 µM
[22] = second compound 0.00949 µM, first compound 1 µM
[23] = second compound 0.00949 µM, first compound 3.16 µM
[24] = second compound 0.00949 µM, first compound 10 µM
[25] = second compound 0.03 µM, first compound 0.0316 µM
[26] = second compound 0.03 µM, first compound 0.1 µM
[27] = second compound 0.03 µM, first compound 0.316 µM
[28] = second compound 0.03 µM, first compound 1 µM
[29] = second compound 0.03 µM, first compound 3.16 µM
[30] = second compound 0.03 µM, first compound 10 µM
[31] = second compound 0.0949 µM, first compound 0.0316 µM
[32] = second compound 0.0949 µM, first compound 0.1 µM
[33] = second compound 0.0949 µM, first compound 0.316 µM
[34] = second compound 0.0949 µM, first compound 1 µM
[35] = second compound 0.0949 µM, first compound 3.16 µM
[36] = second compound 0.0949 µM, first compound 10 µM
[37] = second compound 0.3 µM, first compound 0.0316 µM
[38] = second compound 0.3 µM, first compound 0.1 µM
[39] = second compound 0.3 µM, first compound 0.316 µM
[40] = second compound 0.3 µM, first compound 1 µM
[41] = second compound 0.3 µM, first compound 3.16 µM
[42] = second compound 0.3 µM, first compound 10 µM
[43] = second compound 0.000949 µM, first compound 0.00316 µM
[44] = second compound 0.000949 µM, first compound 0.01 µM
[45] = second compound 0.003 µM, first compound 0.00316 µM
[46] = second compound 0.003 µM, first compound 0.01 µM
[47] = second compound 0.00949 µM, first compound 0.00316 µM
[48] = second compound 0.00949 µM, first compound 0.01 µM
[49] = second compound 0.03 µM, first compound 0.00316 µM
[50] = second compound 0.03 µM, first compound 0.01 µM
[51] = second compound 0.0949 µM, first compound 0.00316 µM
[52] = second compound 0.0949 µM, first compound 0.01 µM
[53] = second compound 0.3 µM, first compound 0.00316 µM
[54] = second compound 0.3 µM, first compound 0.01 µM
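Also: spheroids exposed to the agents for seven days before the readout.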

Compound: CC(Nc1ccc2c(c1)OCCn1cc(N3C(=O)OCC3C(F)F)nc1-2)C(N)=O (centres undefined) + CCn1c(-c2cc(N3CCN(C)CC3)cnc2C(C)OC)c2c3cc(ccc31)-c1csc(n1)CC(NC(=O)C1CC1C)C(=O)N1CCCC(N1)C(=O)OCC(C)(C)C2
IC50 [1]: 160 nM
IC50 [2]: 152 nM
IC50 [3]: < 31.6 nM
IC50 [4]: < 31.6 nM
IC50 [5]: < 31.6 nM
IC50 [6]: < 31.6 nM
viability, T/C [7]: 72.8%
viability, T/C [8]: 57.9%
viability, T/C [9]: 37.4%
viability, T/C [10]: 33.5%
viability, T/C [11]: 24.9%
viability, T/C [12]: 18.5%
viability, T/C [13]: 60%
viability, T/C [14]: 56.5%
viability, T/C [15]: 38.9%
viability, T/C [16]: 35.6%
viability, T/C [17]: 17.2%
viability, T/C [18]: 13.2%
viability, T/C [19]: 37.8%
viability, T/C [20]: 32.8%
viability, T/C [21]: 29.7%
viability, T/C [22]: 19.1%
viability, T/C [23]: 16.3%
viability, T/C [24]: 10.7%
viability, T/C [25]: 34.5%
viability, T/C [26]: 27.7%
viability, T/C [27]: 21.2%
viability, T/C [28]: 12%
viability, T/C [29]: 11.2%
viability, T/C [30]: 6.45%
viability, T/C [31]: 27.4%
viability, T/C [32]: 19.4%
viability, T/C [33]: 12%
viability, T/C [34]: 13%
viability, T/C [35]: 8.97%
viability, T/C [36]: 5.82%
viability, T/C [37]: 20.6%
viability, T/C [38]: 14.2%
viability, T/C [39]: 12.9%
viability, T/C [40]: 8.03%
viability, T/C [41]: 7.08%
viability, T/C [42]: 4.92%

Compound: C=CC(=O)Nc1cc(Nc2nccc(-c3cn(C)c4ccccc34)n2)c(OC)cc1N(C)CCN(C)C + CCn1c(-c2cccnc2C(C)OC)c2c3cc(ccc31)N1CCOC(CC(NC(=O)C(C(C)C)N(C)C(=O)C3(F)CCN(C(=O)C#CC(C)(C)N(C)C)CC3)C(=O)N3CCCC(N3)C(=O)OCC(C)(C)C2)C1
IC50 [1]: > 1000 nM
IC50 [2]: 318 nM
IC50 [3]: 562 nM
IC50 [4]: 450 nM
IC50 [5]: 717 nM
IC50 [6]: 697 nM
viability, T/C [43]: 86.2%
viability, T/C [44]: 82.3%
viability, T/C [7]: 97.7%
viability, T/C [8]: 64.7%
viability, T/C [9]: 64.2%
viability, T/C [10]: 49.2%
viability, T/C [45]: 90.1%
viability, T/C [46]: 95.8%
viability, T/C [13]: 86.3%
viability, T/C [14]: 67.1%
viability, T/C [15]: 52.5%
viability, T/C [16]: 37.8%
viability, T/C [47]: 80.5%
viability, T/C [48]: 84.8%
viability, T/C [19]: 93.2%
viability, T/C [20]: 85.7%
viability, T/C [21]: 55%
viability, T/C [22]: 45%
viability, T/C [49]: 87.1%
viability, T/C [50]: 97.6%
viability, T/C [25]: 84.2%
viability, T/C [26]: 82.5%
viability, T/C [27]: 52.6%
viability, T/C [28]: 43.6%
viability, T/C [51]: 79.4%
viability, T/C [52]: 76.5%
viability, T/C [31]: 115%
viability, T/C [32]: 89.8%
viability, T/C [33]: 59.6%
viability, T/C [34]: 46.1%
viability, T/C [53]: 78.7%
viability, T/C [54]: 104%
viability, T/C [37]: 94.8%
viability, T/C [38]: 94.1%
viability, T/C [39]: 61.7%
viability, T/C [40]: 44.6%

The next lines start with results.

IC50 [1]: 953 nM
IC50 [2]: 1240 nM
IC50 [3]: 1530 nM
IC50 [4]: 1530 nM
IC50 [5]: 1160 nM
IC50 [6]: 996 nM
Compound: CC(C)NCC(C(=O)N1CCN(c2ncnc3c2C(C)CC3O)CC1)c1ccc(Cl)cc1 (centres undefined) + CCn1c(-c2cccnc2C(C)OC)c2c3cc(ccc31)N1CCOC(CC(NC(=O)C(C(C)C)N(C)C(=O)C3(F)CCN(C(=O)C#CC(C)(C)N(C)C)CC3)C(=O)N3CCCC(N3)C(=O)OCC(C)(C)C2)C1
viability, T/C [7]: 91%
viability, T/C [8]: 110%
viability, T/C [9]: 72.1%
viability, T/C [10]: 53.1%
viability, T/C [11]: 41.6%
viability, T/C [12]: 34.6%
viability, T/C [13]: 86.8%
viability, T/C [14]: 99.8%
viability, T/C [15]: 70.2%
viability, T/C [16]: 54.3%
viability, T/C [17]: 40.6%
viability, T/C [18]: 32.9%
viability, T/C [19]: 118%
viability, T/C [20]: 94.4%
viability, T/C [21]: 83.6%
viability, T/C [22]: 48.2%
viability, T/C [23]: 44.7%
viability, T/C [24]: 30.6%
viability, T/C [25]: 101%
viability, T/C [26]: 85.1%
viability, T/C [27]: 76.4%
viability, T/C [28]: 53.5%
viability, T/C [29]: 40.8%
viability, T/C [30]: 31.2%
viability, T/C [31]: 109%
viability, T/C [32]: 81.7%
viability, T/C [33]: 73.3%
viability, T/C [34]: 47.3%
viability, T/C [35]: 39.9%
viability, T/C [36]: 36.5%
viability, T/C [37]: 92%
viability, T/C [38]: 85.7%
viability, T/C [39]: 64.8%
viability, T/C [40]: 49.9%
viability, T/C [41]: 42.5%
viability, T/C [42]: 34.2%

IC50 [1]: 14.1 nM
IC50 [2]: 6.3 nM
IC50 [3]: < 3.16 nM
IC50 [4]: < 3.16 nM
IC50 [5]: < 3.16 nM
IC50 [6]: < 3.16 nM
Compound: Nc1ccn(C2OC(CO)C(O)C2(F)F)c(=O)n1 (centres undefined) + CCn1c(-c2cc(N3CCN(C)CC3)cnc2C(C)OC)c2c3cc(ccc31)-c1csc(n1)CC(NC(=O)C1CC1C)C(=O)N1CCCC(N1)C(=O)OCC(C)(C)C2
viability, T/C [43]: 67.6%
viability, T/C [44]: 57%
viability, T/C [7]: 34.4%
viability, T/C [8]: 34.4%
viability, T/C [9]: 25.9%
viability, T/C [10]: 23%
viability, T/C [45]: 59.1%
viability, T/C [46]: 43.1%
viability, T/C [13]: 31.8%
viability, T/C [14]: 20.8%
viability, T/C [15]: 16.2%
viability, T/C [16]: 19.7%
viability, T/C [47]: 45.6%
viability, T/C [48]: 30.9%
viability, T/C [19]: 25%
viability, T/C [20]: 19.3%
viability, T/C [21]: 18.2%
viability, T/C [22]: 15.1%
viability, T/C [49]: 37.3%
viability, T/C [50]: 29.4%
viability, T/C [25]: 20.3%
viability, T/C [26]: 14.7%
viability, T/C [27]: 12.8%
viability, T/C [28]: 11.6%
viability, T/C [51]: 26.7%
viability, T/C [52]: 30.3%
viability, T/C [31]: 18.8%
viability, T/C [32]: 16.7%
viability, T/C [33]: 11.7%
viability, T/C [34]: 11%
viability, T/C [53]: 25.9%
viability, T/C [54]: 24.5%
viability, T/C [37]: 20.7%
viability, T/C [38]: 18.4%
viability, T/C [39]: 13.9%
viability, T/C [40]: 12.8%

IC50 (curve of compound): > 1000 nM
Compound: CCN1CCN(Cc2ccc(Nc3ncc(F)c(-c4cc(F)c5nc(C)n(C(C)C)c5c4)n3)nc2)CC1
viability, T/C (compound 0.00316 µM): 87.8% [middle of 4 runs]
viability, T/C (compound 0.01 µM): 96.6% [middle of 4 runs]
viability, T/C (compound 0.0316 µM): 73.8% [middle of 4 runs]
viability, T/C (compound 0.316 µM): 80.7% [middle of 4 runs]
viability, T/C (compound 1 µM): 83.8% [middle of 4 runs]
